Measured values published in PubChem BioAssay (NCI).
Values joined by “and” are separate entries in the source; they are usually repeats but may differ in a detail not shown here. Equal values may be shown once.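 Cells were grown in 96-well plates and exposed to each compound for 48 hours at five concentrations; endpoints were interpolated linearly between bracketing concentrations, or set to the highest concentration if not reached. Abbreviation: GI50, concentration required for 50% inhibition of growth. The concentration for full growth arrest is given as TGI.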

Assays:
Assay in all cases: NCI tumour cell line growth inhibition, 48 h
DMS 114 small cell lung = test system: DMS 114 small cell lung
DMS 273 small cell lung = test system: DMS 273 small cell lung
HOP-18 NSCLC = test system: HOP-18 NSCLC
LXFL 529 NSCLC = test system: LXFL 529 NSCLC
M19-MEL melanoma = test system: M19-MEL melanoma
SNB-78 CNS = test system: SNB-78 CNS
KM20L2 colon = test system: KM20L2 colon
MDA-N = test system: MDA-N
RXF-631 renal = test system: RXF-631 renal
P388 leukemia = test system: P388 leukemia
P388/ADR leukemia = test system: P388/ADR leukemia

SMILES	TGI (DMS 114 small cell lung)	TGI (DMS 273 small cell lung)	TGI (HOP-18 NSCLC)	TGI (LXFL 529 NSCLC) [µM]	TGI (M19-MEL melanoma)	TGI (SNB-78 CNS) [µM]	TGI (KM20L2 colon)	TGI (MDA-N) [µM]	TGI (RXF-631 renal) [µM]	further results
CCC1(O)C(=O)OCc2c1cc1n(c2=O)Cc2c-1nc1ccccc1c2OC (centres undefined)	1.26 µM	0.108 µM	> 77.9 µM	> 69.6	1.89 µM	> 100	–	–	–	–
Cn1c(O)c(C=N)c(=O)n(C)c1=O	> 100 µM	–	> 100 µM	–	> 100 µM	> 100	> 100 µM	–	–	–
CC1=C(C)C(=O)c2c(cc3c4ccccc4ccn23)C1=O	> 100 µM	> 100 µM	> 100 µM	–	> 100 µM	–	> 100 µM	–	–	–
Nc1ccn(C2OC(CO[P+](=O)OC3C(CO[P+](=O)OC4C(CO[P+](=O)OC5C(CO[P+](=O)OC6C(CO[P+](=O)OC7C(CO[P+](=O)OC8C(CO[P+](=O)OC9C(CO[P+](=O)OC%10C(CO[P+](=O)OC%11C(CO)OC(n%12ccc(N)nc%12=O)C%11(F)F)OC(n%11ccc(N)nc%11=O)C%10(F)F)OC(n%10ccc(N)nc%10=O)C9(F)F)OC(n9ccc(N)nc9=O)C8(F)F)OC(n8ccc(N)nc8=O)C7(F)F)OC(n7ccc(N)nc7=O)C6(F)F)OC(n6ccc(N)nc6=O)C5(F)F)OC(n5ccc(N)nc5=O)C4(F)F)OC(n4ccc(N)nc4=O)C3(F)F)C(O)C2(F)F)c(=O)n1 (centres undefined)	–	–	–	–	–	–	–	> 100	–	–
CCOC(=O)NC(=O)c1cn(CCCCCCCCCCC(=O)N2CCN(CCn3cc(C(=O)NC(=O)OCC)c(=O)[nH]c3=O)CC2)c(=O)[nH]c1=O	> 100 µM	> 100 µM	> 100 µM	> 100	> 100 µM	> 100	> 100 µM	–	> 100	–
O=[N+]([O-])c1ccccc1S(=O)(=O)c1ccccc1[N+](=O)[O-]	> 100 µM	> 100 µM	> 100 µM	> 100	> 100 µM	> 100	> 100 µM	> 100	–	–
CC(/C=C/C=C/C=C/C=C/C=C/C(O)=C1/C(=O)C(CCC(=O)O)N(C)C1=O)=C\C(C)C(OC1CC(O)C(O)C(C)O1)C(C)C (centres undefined)	–	–	–	–	–	–	–	12.7	–	–
Cn1nc(-c2ccccc2)c(C(=O)/C=C/c2ccccc2)c(N2CCCCC2)c1=O	> 100 µM	> 100 µM	> 100 µM	> 100	–	–	> 100 µM	–	> 100	–
NC(Cc1cc(Br)c(O)c(Br)c1)C(=O)O (centres undefined)	–	–	–	–	–	–	–	> 100	–	–
N#CC(NC12CC3CC(CC(C3)C1)C2)c1ccccc1 (centres undefined)	–	–	–	–	–	–	–	> 100	–	–
S=C1CNC(=S)CN1	> 100 µM	> 100 µM	> 100 µM	> 100	> 100 µM	> 100	> 100 µM	–	> 100	–
CCC[CH2][Sn]([CH2]CCC)([O]C(=O)c1cc(OC)c(OC)c(OC)c1)[O]C(=O)c1cc(OC)c(OC)c(OC)c1	1.54 µM	2.95 µM	–	0.536	2.02 µM	1.58	3.3 µM	–	1.83	GI50 (DMS 114 small cell lung): 0.404 µM; GI50 (DMS 273 small cell lung): 1.35 µM; GI50 (KM20L2 colon): 1.8 µM; GI50 (LXFL 529 NSCLC): 0.215 µM; GI50 (M19-MEL melanoma): 0.749 µM; GI50 (RXF-631 renal): 0.53 µM; GI50 (SNB-78 CNS): 0.453 µM
Oc1ccc(Cl)cc1Cc1cc(Cl)cc(Cc2cc(Cl)ccc2O)c1O	–	–	–	–	–	–	–	8.31	–	–
O=c1oc2c(Br)c(O)c(Br)cc2c2ccccc12	–	–	–	–	–	–	–	> 100	–	–
COC1OC(COCc2ccc(Cl)cc2)C(OCc2ccc(Cl)cc2)C1O (centres undefined)	32.8 µM	31.7 µM	25.7 µM	43.3	35.9 µM	–	31.9 µM	–	34.6	–
Oc1c(Cl)cc(C(c2cc(Cl)c(O)c(Cl)c2)C(c2cc(Cl)c(O)c(Cl)c2)c2cc(Cl)c(O)c(Cl)c2)cc1Cl	–	–	–	–	–	–	–	19	–	GI50 (MDA-N): 4.07 µM
O=C1C(CN(Cc2ccccc2)Cc2ccccc2)CCCC1CN(Cc1ccccc1)Cc1ccccc1 (centres undefined)	10.3 µM and > 100 µM	33.3 µM and > 100 µM	11.8 µM and > 100 µM	–	18.7 µM and > 100 µM	> 100	35.6 µM and > 100 µM	> 100	> 100	GI50 (DMS 273 small cell lung): 17.1 µM and > 100 µM; GI50 (HOP-18 NSCLC): 5.67 µM and 48.5 µM; GI50 (KM20L2 colon): 17.6 µM and > 100 µM; GI50 (SNB-78 CNS): 28.1 µM and > 100 µM

SMILES	TGI (DMS 114 small cell lung)	TGI (DMS 273 small cell lung)	TGI (HOP-18 NSCLC)	TGI (LXFL 529 NSCLC) [µM]	TGI (M19-MEL melanoma)	TGI (SNB-78 CNS) [µM]	TGI (KM20L2 colon)	TGI (MDA-N) [µM]	TGI (RXF-631 renal) [µM]	further results
CCCCCCCCCCCCCCCCc1c(C(=O)OC)[nH]c(=S)[nH]c1=O	–	> 50 µM	> 50 µM	> 50	> 50 µM	> 50	> 50 µM	–	> 50	–
O=C(O)c1ccc([N+](=O)[O-])c(P(=O)(O)O)c1	–	–	–	–	–	–	–	> 100	–	–
CCOC(=O)CC(=O)N(c1ccc(OC)cc1)C(C(=O)OC)c1ccccc1 (centres undefined)	–	–	–	–	–	–	–	> 100	–	–
CCOC(=O)/C(=C/c1cc(OC)ccc1OC)CC(=O)O	> 100 µM	> 100 µM	> 100 µM	> 100	> 100 µM	> 100	> 100 µM	–	> 100	–
O=S1Cc2ccccc2CS1 (centres undefined)	–	29.8 µM	> 100 µM	28.7	33.7 µM	36.7	> 100 µM	–	> 100	–
CC(=O)NC(ON1C(=O)COc2ccccc21)C(Cl)(Cl)Cl (centres undefined)	–	> 100 µM	–	> 100	–	> 100	> 100 µM	–	–	–
Cc1ccc(NC(=O)C2C(=O)C(=O)N(c3ccc(C)cc3)C2=O)cc1 (centres undefined)	> 100 µM	–	> 100 µM	> 100	> 100 µM	> 100	> 100 µM	–	–	–
Cc1c(NC(=O)CCCl)c(=O)oc2c(C)c3occc(=O)c3cc12	–	–	–	–	–	–	–	> 100	–	–
COc1ccccc1/C=C1\CCC(CN(C)C)C1=O (centres undefined)	7.58 µM	20.5 µM	> 53.1 µM	–	7.46 µM	29.2	16.4 µM	26	–	TGI (P388 leukemia): 2.83 µM; TGI (P388/ADR leukemia): 2.75 µM
Nc1ccccc1S(=O)c1ccccc1 (centres undefined)	> 100 µM	> 100 µM	> 100 µM	> 100	> 100 µM	–	> 100 µM	–	–	–
CC(=O)c1cc2c3c(c1)c1cc4c(cc1c(=O)n3CC2)OCO4	> 100 µM	> 100 µM	76.6 µM	> 100	> 100 µM	> 100	> 100 µM	–	> 100	–
Cc1cc(=O)[nH]c(CNC(=O)c2cccc3ccccc23)n1	–	> 100 µM	–	> 100	> 100 µM	> 100	> 100 µM	–	–	–
c1ccc2c(c1)nnn1c3cnccc3nc21	69.5 µM	36 µM	> 100 µM	> 100	> 100 µM	> 100	> 100 µM	–	–	–
CC1C(=O)CCC1C(Sc1ccccc1)(Sc1ccccc1)Sc1ccccc1 (centres undefined)	49.6 µM	> 100 µM	–	77.9	> 100 µM	> 100	–	–	> 100	–
COC(=O)C1C2CC3C(OC(=O)C31)C2I (centres undefined)	> 100 µM	> 100 µM	–	–	> 100 µM	> 100	> 100 µM	–	–	–
O=[n+]1cnn([O-])c2ccccc21	–	–	–	–	–	–	–	44.2	–	–
